Test results reported in US7589168B2 (Roskamp Research LLC, priority 2001, dated 2009).
Entries after “also recorded” stand apart in the source; their conditions may differ. Ends that are not written are not given here.

What was measured:
[1] = tested on: chick chorionic allantoid membrane (CAM); experiment: Chick chorionic allantoid membrane (CAM) model of angiogenesis; assay type: in vivo; conditions: dose range 1 microgram to 250 micrograms, 48 hours
Description: After 48 hours of incubation, CAMs were perfused with colloidal carbon, fixed and photographed.

[2] = tested on: A-549 (human lung adenocarcinoma); experiment: Nude mouse tumor xenograft model, A-549; assay type: in vivo, nude mice; conditions: for tumor growth (tumor volume): vs vehicle control; for tumor vascularization (mean microvessel count per tumor): vs control tumors, 50 mg/kg/day
Description: (§1) Nude mouse tumor xenograft model. […] The tumor volumes were determined by measuring length (l) and width (w) and calculating volume (V=lw^2/2). On the termination day of each in vivo antitumor study, tumors were extracted and fixed in 10% neutral buffered formalin for 6 h. Formalin-fixed paraffin sections were cut at 3 microns and dried overnight at room temperature. Sections were immunostained with rat anti-mouse CD31 ([sequence], San Diego, Calif.) using the avidin peroxidase complex technique as previously described (Blaskovich M. A., et al. Nat. Biotechnol. 18, 1065-1070 (2000)). Briefly, sections were digested with protease XXIV (1 mg/ml in PBS, pH 7.6) for 7 minutes. Endogenous peroxidase was blocked with 3% hydrogen peroxide and non-specific background staining reduced by a 10 min incubation with normal rabbit serum. Sections were incubated for 30 min with rat anti-mouse CD31 at 1:50, for 15 min with biotinylated anti-rat IgG and for 15 min with ABC complex (VECTOR KIT, Burlingame, Calif). NOVARED was used as the chromogen. Slides were counterstained with modified Mayer's hematoxylin using standard histological techniques. For microvessel counting, the five areas of highest tumor neovascularization were microscopically selected using a low-power view. After the areas of highest neovascularization had been identified, individual microvessels were counted on a 400×(40× objective lens and 10× ocular lens) field. Brown-staining endothelial cells or endothelial cell clusters were considered as a single, countable microvessel as previously described (Weidner N. et al. N. Engl. J. Med. 324, 1-8 (1991)). Data from at least forty 400× fields of each tumor type are reported by mean values±SE. Results are expressed as the % of microvessel count standardized against the microvessel count in the control tumors (vehicle only).

[3] = tested on: bFGF-induced angiogenesis in MATRIGEL plugs; experiment: In vivo […] plug assay (bFGF-induced angiogenesis); set-up: species or system mice
[4] = tested on: human middle cerebral artery rings; experiment: Human middle cerebral artery ring angiogenesis assay; assay type: cell-based; conditions: for microvessel outgrowths: day 9, vs control
[5] = tested on: neovascularization stimulated by bFGF in the rat cornea; experiment: Rat corneal model of angiogenesis (bFGF hydron pellets); assay type: in vivo
Description: Representative flat-mount photomicrographs of rat corneas (original magnification ×100) 7 days after implantation of hydron pellets. […] Angiogenesis indexes are expressed as mean±SE.

rat aortic rings = experiment: Ex vivo rat aortic ring angiogenesis assay; assay type: cell-based, Sprague Dawley rats
[6] = tested on: cow middle cerebral artery rings; experiment: Cow middle cerebral artery ring angiogenesis assay; assay type: cell-based; conditions: COX-2 inhibition by NS-398; data not shown
[7] = tested on: human brain endothelial cells; experiment: Endothelial cell migration assay (modified Boyden chamber, […] invasion chamber); assay type: cell-based; conditions: 20 hours, vs untreated cells
Description: Endothelial Cell Migration Assay. Migration of human brain adult endothelial cells was evaluated using a modified Boyden chamber assay (BD BioCoat [sequence] Invasion Chamber), as described (Soker et al. 1998; Nakamura et al. 1997). The cells were plated at 4.10^4/ml onto an 8 μm pore size membrane coated with a thin layer of [sequence] basement membrane matrix. Freshly solubilized Aβ (1 μM and 5 μM) was added to the medium in the outer cup and the cells were cultured for 20 hours. Non-invading cells were removed from the upper surface by using a cotton swab. Membrane inserts were then fixed with 4% paraformaldehyde and stained with the DEAD-RED dye (MOLECULAR PROBE). Cells were observed using a fluorescent microscope. The number of cells, which migrated to the undersurface of the filter, was quantified by counting the cells in randomly selected 3 microscopic fields (10×). Experiments were done in triplicate.

[8] = tested on: U87-MG (human glioblastoma); experiment: Nude mouse tumor xenograft model, U87-MG; assay type: in vivo, nude mice
Description: as §1

B16F1 melanoma cells = experiment: Growth of subcutaneous B16F1 melanoma tumors; assay type: in vivo, C57B16/J mice; conditions: cells injected s.c. in medium containing 10 μM freshly dissolved Aβ1-40; 14 days after implantation
Description: Subcutaneous Implantation of B16 Melanoma Cells. C57B16/J mice were purchased from Jackson laboratories at 8 weeks of age. The B16 F1 murine melanoma cell line was purchased from ATCC. Cells were grown in DMEM medium supplemented with 10% fetal calf serum and 1× mixture of antibiotics-fungicide (BIOWHITEKER). […] 100 μl of cell suspension were injected subcutaneously in mice. Fourteen days after the implantation of the cells, mice were euthanized and the tumors dissected and weighted.

endothelial cells = experiment: Toxicity (apoptosis, necrosis) of Aβ in the capillary network assay; assay type: cell-based, human; conditions: soluble or aggregated Aβ; data not shown
Description: Although endothelial cells continue to proliferate and form a cobblestone monolayer when plated on untreated tissue culture dishes, culturing on dishes coated with reconstituted basement membrane induces endothelial cells to become quiescent and adopt a three-dimensional capillary-like morphology. Therefore, the effect of Aβ on the capillary-like network formation on […] by endothelial cells isolated from human middle cerebral artery was assessed. […] The potential toxicity of Aβ was investigated in this assay and it was observed that under these culture conditions no apoptosis (as measured by ELISA determining the quantity of cytoplasmic oligonucleosomes) or necrosis (estimated by the release of LDH in the culture medium) of endothelial cells was induced by either soluble or aggregated Aβ (data not shown).

[9] = 50 mg/kg/day/tumor intratumorally

## VIGKYHGMSNLVGRSFEVHQGKGAEVDAHGLFDIEAFVDV [scrambled Aβ, having the same amino acids as Aβ1-40 peptide, but in random order]
[1]
  vascular response vs control conditions: no difference in vascular response
[2]; [9]
  tumor growth (tumor volume): did not affect the growth of human lung tumors; also recorded: no difference
  tumor vascularization (mean microvessel count per tumor): no significant difference
[2]; 50 mg/kg/day/tumor intratumorally, listed as Aβ scrambled
  tumor vascularization (mean microvessel count per tumor): did not impede tumor vascularization
[3]; 50 mg/kg/day intraperitoneal, 6 days
  endothelial cell invasion and vessel formation (PECAM-1 immunostaining): presence of endothelial cells forming vessels
[4]; 1 μM, listed as scramble Aβ1-40
  microvessel outgrowths: absence of pro-angiogenic activity; also recorded: not altered
[4]; 5 μM
  microvessel outgrowths: not altered
[4]; scramble peptide, dose not given, 9 days
  formation of outgrowths: unable to affect the formation of outgrowths
[5]; after 7 days, hydron pellets
  neovascularization stimulated by bFGF: displayed no effect
[5]; dose not stated, 7 days
  angiogenesis index vs control (bFGF alone): no significant difference

## CS(=O)(=O)Nc1ccc([N+](=O)[O-])cc1OC1CCCCC1 [NS-398]
[4]; NS-398 (20 μM)
  microvessel outgrowths: partially inhibited the microvessel outgrowths; also recorded: anti-angiogenic effect
Rat aortic rings; 20 μM, day 5, vs control
  microvessel outgrowths: displays anti-angiogenic activity; also recorded: effectively inhibited outgrowths
Rat aortic rings; NS-398 + 1 μM Aβ1-40, day 5
  effect on stimulation of microvessel outgrowths by 1 μM Aβ1-40: able to oppose the pro-angiogenic effect of 1 μM Aβ1-40; also recorded: also inhibited
[6]
  microvessel outgrowths: partial inhibition of microvessel outgrowths

## Aβ: Aβ peptide as worded in the examples; methods and legends indicate Aβ1-40 (toxicity test: soluble or aggregated Aβ1-40 and Aβ1-42)
[2]; [9]
  tumor growth (tumor volume): suppression of tumor growth
[2]; CD31 and factor VIII immunostaining, 50 mg/kg/day/tumor intratumorally
  reduction of tumor microvessel densities: approximately 60%
[2]; with 10 μM of Aβ peptide
  tumor growth: complete inhibition of tumor growth
[3]; 50 mg/kg/day, Aβ vs scrambled Aβ group, t-test
  total cellular invasion in MATRIGEL plugs: significant difference
[3]; with 2 μM of Aβ peptide
  angiogenesis in the MATRIGEL plug model: inhibition of angiogenesis
[7]; 1 μM freshly solubilized
  endothelial cell migration: stimulated endothelial cell migration
[7]; 5 μM freshly solubilized
  endothelial cell migration: significantly suppressed endothelial cells migration
[8]; 50 mg/kg/day/tumor intratumorally, vs vehicle control
  tumor growth (tumor volume): suppression of tumor growth
[8]; CD31 immunostaining, 50 mg/kg/day/tumor intratumorally
  reduction of microvessel densities: approximately 50%
[8]; with 10 μM of Aβ peptide
  tumor growth: complete inhibition of tumor growth
B16F1 melanoma cells
  development of tumors (tumor weight): significantly reduce the development of tumors
Endothelial cells
  apoptosis of endothelial cells (ELISA, cytoplasmic oligonucleosomes): no apoptosis
  necrosis of endothelial cells (release of LDH in the culture medium): no
